These results are taken from patent US20220031642A1, “Niclosamide Formulations and Methods of Use” (priority 2020, published 2022).

Each structure is given as a SMILES string.

In data set [1] the test system is SARS-CoV-2. The data set can be described thus: microbe, parasite or virus in culture. The format is cell-based. To be noted: Severe acute respiratory syndrome coronavirus 2, Vero C1008; Vero E6 cells, reporter SARS-CoV-2 MOI of 0.1, luciferase activity 24 h post-infection; read-out: antiviral EC50.
For data set [2] the following is noted: human, in vivo, po; cited from earlier work.

Usually EC50 stands for the midpoint of the concentration-response curve. Consider `O=C(Nc1ccc([N+](=O)[O-])cc1Cl)c1cc(Cl)ccc1O` [niclosamide, Niclosamide], for which the EC50 in data set [1] was found to be 150 nM. Further, the “tmax (plasma levels peaked)” value in data set [2] is 4 h.
